According to patent US20080299123A1, “TREATMENT OF CHEMOTHERAPY- OR RADIOTHERAPY-RESISTANT TUMORS” (Deutsches Krebsforschungszentrum Stiftung des offentlichen …, priority 2006, published 2008):

How the values were obtained:
L1 = L1 processing in SKOV3ip cells (L1-32 in lysate, soluble L1 in supernatant), Western blot; type: cell-based, human; conditions: 24 hr
Procedure: (§1) (A) Analysis of L1-32 cleavage by γ-secretase. Cells were treated for 48 h at 37° C. with presenilin inhibitor IX (DAPT) or for control with DMSO. Isolated membranes were incubated for 2 h at 37° C. and then separated into pellet or supernatant (SN) fractions by ultracentrifugation. Lanes 1 to 2 show cells treated with DMSO (vehicle). Lanes 3 and 4 show cells preincubated with DAPT. (B) SKOV3ip cells were treated with DAPT either in the presence or absence of the metalloprotease inhibitor TAPI-0 for 24 hr. Cells were lysed in BOG lysis buffer and analyzed by Western blot analysis. The cell supernatant was analyzed for soluble L1 using mAb L1-11A and the cell lysate was examined for L1-32 using peytL1. (C) HEK293 or HEK293-hL1wt cells were treated with DMSO, DAPT, TAPI-0 or both inhibitors for 96 h. mRNA was transcribed to cDNA and analyzed by qPCR for the genes CRABPII and cathepsin B. (D) Analysis of ERK phosphorylation in SKOV3ip cells after treatment with the indicated compounds.
(§2) (A) Effect of L1-antibodies on ERK phosphorylation in SKOV3ip cells. The cells were incubated for 24 hr at 37° C. with the indicated purified antibodies to L1 (10 μg/ml) or isotype control IgG. […] Soluble L1 in the supernant and L1-32 in the cell lysate were analyzed by Western blot. (C) mRNA was isolated from antibody treated SKOV3ip cells, transcribed to cDNA and analyzed by qPCR for the indicated genes. […]

γ-secretase = assay: In vitro γ-secretase activity on membranes of CHO-hL1wt cells; type: cell-based; conditions: cells preincubated 48 h with inhibitor; membranes 2 h at 37° C.
Procedure: as §1
Consecutive cleavage by both enzymes is a hallmark of Notch, APP and CD44 signaling that is followed by translocation of the intracellular portion to the nucleus (22). To verify this observation for tumor cells, we analyzed the processing of L1-32 in more detail. […] Indeed, we detected L1-28 in the supernatant fraction (FIG. 11A, lane 2). […]

ERK phosphorylation = ERK phosphorylation in SKOV3ip cells; type: cell-based, human; conditions: treatment with DAPT, TAPI-0
Procedure: as §1, §2

[1] = test system: cathepsin B and CRABPII transcription; assay: L1-dependent gene regulation by qPCR in HEK293-hL1wt cells; type: cell-based, human; conditions: preincubation 96 h
Procedure: as §1
We next investigated whether L1-mediated gene regulation was dependent on L1-processing, by carrying out inhibition experiments. […]
mRNA was isolated using the Quiagen RNAeasy mini kit (Quiagen Hilden, Germany). […] After exposing of the hybridized membranes, the PhosphorImager screens were scanned (Fuji FLA-3000, 100 μm resolution, Fuji BAS-reader software). […]

L1CAM = L1CAM expression in PT45-P1 cells; type: cell-based, human; conditions: 20 ng/mL IL1β
Procedure: (a) PT45-P1res cells were either left untreated (w/o) or treated with 250 ng/mL IL1-RA for 6 hours. In parallel, PT45-P1 cells were either left untreated (w/o) or treated with 20 ng/mL IL1β for 6 hours. L1CAM mRNA levels were analysed by real-time PCR and compared with β-actin used as control. Data from duplicate measurements are expressed as amount of mRNA in arbitrary units. Results from one representative out of three experiments are shown. (b) Cellular lysates from PT45-P1res and PT45-P1 cells were subjected to western blotting using an antibody for the detection of full-length L1CAM. PT45-P1res cells were either left untreated (w/o) or treated with 250 ng/mL IL1-RA for 24 hours. In parallel, PT45-P1 cells were either left untreated (w/o) or treated with 20 ng/mL IL1β for 24 hours. In all experiments, a HSP90 antibody was used as a control for equal protein load.
Cells were seeded into 6 well and 12 well plates, respectively, and transfected or treated as indicated. […] Protein concentrations were determined using the Dc Protein assay (BioRad). […]
2 μg of total RNA were reverse-transcribed into single-stranded cDNA, as described previously (Schafer et al., 1999). […] Data were collected during annealing steps and were further analysed by using the i-Cycler iQ Optical system software (BioRad). All samples were analysed in duplicates and data are expressed as amount of mRNA in arbitrary units.

| Molecule | L1-32 in cell lysate (L1) | soluble L1 in the medium (L1) | release of L1-28 from the membrane into the supernatant (γ-secretase) | ERK activation in treated cells (ERK phosphorylation) | L1-dependent regulation of transcription for cathepsin B and CRABPII [1] | L1CAM expression (L1CAM) |
| --- | --- | --- | --- | --- | --- | --- |
| C[C@H](NC(=O)Cc1cc(F)cc(F)c1)C(=O)N[C@H](C(=O)OC(C)(C)C)c1ccccc1 [DAPT] | strong increase in the metalloprotease cleavage fragment L1-32 | not increased by the treatment | could not release this fragment into the supernatant | did not interfere with ERK activation | blocked | – |
| IL1β: recombinant human Interleukin 1 beta from R&D Systems | – | – | – | – | – | enhanced L1CAM expression |
